Like-named read-outs stand apart in the source and are kept apart here.
Experiments:
[1] = system: rats; assay: positive emotional learning (PEL) test, 50-kHz ultrasonic vocalizations; type: in vivo, rat; details: PO, dose .1 mg/kg, one hour after administration
Experimental: Experiments were conducted as described in Burgdorf et al., “The effect of selective breeding for differential rates of 50-kHz ultrasonic vocalizations on emotional behavior in rats,” Devel. Psychobiol., 51:34-46 (2009). Rat 50-kHz ultrasonic vocalization (hedonic USVs) is a validated model for the study of positive affective state and is best elicited by rough-and-tumble play.
The PEL assay measures the acquisition of positive (hedonic) 50-kHz ultrasonic vocalizations (USVs) to a social stimulus, heterospecific rough and tumble play stimulation. Heterospecific rough-and-tumble play stimulation was administered by the experimenter's right hand. One hour after administration of test compound or vehicle negative control (0.5% sodium carboxymethyl cellulose in […] sterile saline), animals received 3 min of heterospecific rough-and-tumble play that consisted of alternating 15 sec blocks of heterospecific play and 15 sec of no-stimulation. High frequency ultrasonic vocalizations (USVs) were recorded and analyzed by sonogram with Avasoft SASlab Pro (Germany) as previously described by Burgdorf et al., “Positive emotional learning is regulated in the medial prefrontal cortex by GluN2B-containing NMDA receptors,” Neuroscience, 192:515-523 (2011). Frequency modulated 50-kHz USVs that occurred during each of the no-stimulation periods were quantified to measure PEL. Animals were not habituated to play stimulation before testing. Positive emotional learning was measured during the conditioned stimulus (CS) trials preceding the tickle unconditioned stimulus (UCS) trials. Animals received 15 second trials consisting of 6 CS and 6 UCS trials each (3 min total).
The table below summarizes the findings. As each experiment includes its own vehicle group, an example (typical) vehicle score is shown. Max effect (mean number of 50 kHz USVs per 15 seconds) is reported as ^: <6.0; *: 6-10.9; **: 11-16.9; ***: 17-22.

[2] = oral pharmacokinetics (plasma, brain, CSF); type: in vivo, Sprague Dawley rats; details: rat, per os 10 mg/kg; for Tmax: normal saline (* in 5% NMP, 5% Solutol HS, 90% normal saline)
Experimental: In another experiment, Sprague Dawley rats were dosed per os using a normal saline formulation containing 10 mg/kg of the compounds identified in the table below (except for the compounds marked with an asterisk (“*”) that were delivered in 5% NMP, 5% Solutol® HS and 90% normal saline formulation). Plasma, brain, and CSF samples were analyzed at various time points over a 24 hour period.

[3] = molecular target: T1, NMDAR2B (Homo sapiens, UniProt Q13224); assay: [3H]MK-801 binding in NMDAR expressing HEK cell membranes (facilitation of NMDAR activation); type: biochemical; details: 50 μM glutamate; for EC50: read-out: B: log EC50 (converted)
T1 construct: expressed in transfected cells; host or cells: HEK cells (membrane extract)
T1 sequence (Q13224 27-1484, species assumed, other chains not shown): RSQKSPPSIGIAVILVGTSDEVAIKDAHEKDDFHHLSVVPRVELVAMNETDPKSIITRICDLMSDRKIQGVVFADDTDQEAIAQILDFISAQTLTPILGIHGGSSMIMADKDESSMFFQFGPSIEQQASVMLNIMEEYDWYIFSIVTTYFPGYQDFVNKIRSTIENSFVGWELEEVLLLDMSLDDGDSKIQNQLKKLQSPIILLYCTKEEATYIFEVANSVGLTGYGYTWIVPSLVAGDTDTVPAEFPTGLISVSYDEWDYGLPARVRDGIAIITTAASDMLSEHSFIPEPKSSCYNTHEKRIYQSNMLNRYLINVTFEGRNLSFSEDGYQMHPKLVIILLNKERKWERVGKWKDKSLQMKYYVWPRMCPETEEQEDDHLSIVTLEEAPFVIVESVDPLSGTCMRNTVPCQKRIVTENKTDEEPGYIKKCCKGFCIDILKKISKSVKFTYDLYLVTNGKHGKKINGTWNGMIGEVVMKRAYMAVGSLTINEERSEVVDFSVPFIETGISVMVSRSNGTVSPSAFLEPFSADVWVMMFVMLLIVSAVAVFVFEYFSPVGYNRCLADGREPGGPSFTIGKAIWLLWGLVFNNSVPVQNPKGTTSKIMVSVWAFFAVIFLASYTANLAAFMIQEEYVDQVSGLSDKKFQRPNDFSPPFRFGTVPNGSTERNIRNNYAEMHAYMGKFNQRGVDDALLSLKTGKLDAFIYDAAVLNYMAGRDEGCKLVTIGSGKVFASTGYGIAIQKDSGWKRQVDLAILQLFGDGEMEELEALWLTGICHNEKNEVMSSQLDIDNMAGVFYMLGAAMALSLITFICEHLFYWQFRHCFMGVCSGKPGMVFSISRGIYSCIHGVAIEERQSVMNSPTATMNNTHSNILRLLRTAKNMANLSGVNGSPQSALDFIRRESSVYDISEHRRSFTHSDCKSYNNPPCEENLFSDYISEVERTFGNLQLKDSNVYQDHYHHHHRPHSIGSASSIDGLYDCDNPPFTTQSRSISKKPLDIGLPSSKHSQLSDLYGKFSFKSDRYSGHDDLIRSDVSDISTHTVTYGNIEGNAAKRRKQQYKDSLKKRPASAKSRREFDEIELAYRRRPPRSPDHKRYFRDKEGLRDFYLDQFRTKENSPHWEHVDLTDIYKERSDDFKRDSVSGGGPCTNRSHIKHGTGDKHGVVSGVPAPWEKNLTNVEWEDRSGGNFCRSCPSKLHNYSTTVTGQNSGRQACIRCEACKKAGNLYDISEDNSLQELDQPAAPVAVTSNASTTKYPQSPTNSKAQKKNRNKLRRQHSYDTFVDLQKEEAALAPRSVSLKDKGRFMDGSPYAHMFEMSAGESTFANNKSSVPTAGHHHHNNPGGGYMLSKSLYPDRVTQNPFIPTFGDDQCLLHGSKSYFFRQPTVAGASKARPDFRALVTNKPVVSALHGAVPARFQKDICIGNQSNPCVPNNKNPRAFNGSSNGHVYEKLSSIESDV
Experimental: (§1) Assays were conducted as described by Moskal et al., “GLYX-13: a monoclonal antibody-derived peptide that acts as an N-methyl-D-aspartate receptor modulator,” Neuropharmacology, 49, 1077-87, 2005. These studies were designed to determine if the test compounds act to facilitate NMDAR activation in NMDAR2A, NMDAR2B, NMDAR2C or NMDAR2D expressing HEK cell membranes as measured by increases in [^3H]MK-801 binding.
(§2) In the assay, 300 μg of NMDAR expressing HEK cell membrane extract protein was preincubated for 15 minutes at 25° C. in the presence of saturating concentrations of glutamate (50 μM) and varying concentrations of test compound (1×10^15M−1×10^−7M), or 1 mM glycine. Following the addition of 0.3 μCi of [^3H]MK-801 (22.5 Ci/mmol), reactions were again incubated for 15 minutes at 25° C. (nonequilibrium conditions). Bound and free [^3H]MK-801 were separated via rapid filtration using a Brandel apparatus.
(§3) In analyzing the data, the DPM (disintegrations per minute) of [^3H]MK-801 remaining on the filter were measured for each concentration of test compound or for 1 mM glycine. The DPM values for each concentration of a ligand (N=2) were averaged. The baseline value was determined from the best fit curve of the DPM values modeled using the GraphPad program and the log(agonist) vs. response (three parameters) algorithm was then subtracted from all points in the dataset. The % maximal [^3H]MK-801 binding was then calculated relative to that of 1 mM glycine: all baseline subtracted DPM values were divided by the average value for 1 mM glycine. The EC50 and % maximal activity were then obtained from the best fit curve of the % maximal [^3H]MK-801 binding data modelled using the GraphPad program and the log(agonist) vs. response (three parameters) algorithm.
(§4) The tables below summarize the results for the wild type NMDAR agonists NMDAR2A, NMDAR2B, NMDAR2C, and NMDAR2D, and whether the compound is not an agonist (−), is an agonist (+), or is a strong agonist (++), where column A is based on the % maximal [^3H]MK-801 binding relative to 1 mM glycine (−=0; <100%=+; and >100%=++); and column B is based on log EC50 values (0=−; ≥1×10^−9 M (e.g., −8)=+; and <1×10^−9 M (e.g., −10)=++).

[4] = molecular target: T2, NMDAR2A (Homo sapiens, UniProt Q12879); assay: as above; type: biochemical; details: 50 μM glutamate; for EC50: read-out: B: log EC50 (converted)
T2 construct: expressed in transfected cells; host or cells: HEK cells (membrane extract)
T2 sequence (Q12879 23-1464, species assumed, other chains not shown): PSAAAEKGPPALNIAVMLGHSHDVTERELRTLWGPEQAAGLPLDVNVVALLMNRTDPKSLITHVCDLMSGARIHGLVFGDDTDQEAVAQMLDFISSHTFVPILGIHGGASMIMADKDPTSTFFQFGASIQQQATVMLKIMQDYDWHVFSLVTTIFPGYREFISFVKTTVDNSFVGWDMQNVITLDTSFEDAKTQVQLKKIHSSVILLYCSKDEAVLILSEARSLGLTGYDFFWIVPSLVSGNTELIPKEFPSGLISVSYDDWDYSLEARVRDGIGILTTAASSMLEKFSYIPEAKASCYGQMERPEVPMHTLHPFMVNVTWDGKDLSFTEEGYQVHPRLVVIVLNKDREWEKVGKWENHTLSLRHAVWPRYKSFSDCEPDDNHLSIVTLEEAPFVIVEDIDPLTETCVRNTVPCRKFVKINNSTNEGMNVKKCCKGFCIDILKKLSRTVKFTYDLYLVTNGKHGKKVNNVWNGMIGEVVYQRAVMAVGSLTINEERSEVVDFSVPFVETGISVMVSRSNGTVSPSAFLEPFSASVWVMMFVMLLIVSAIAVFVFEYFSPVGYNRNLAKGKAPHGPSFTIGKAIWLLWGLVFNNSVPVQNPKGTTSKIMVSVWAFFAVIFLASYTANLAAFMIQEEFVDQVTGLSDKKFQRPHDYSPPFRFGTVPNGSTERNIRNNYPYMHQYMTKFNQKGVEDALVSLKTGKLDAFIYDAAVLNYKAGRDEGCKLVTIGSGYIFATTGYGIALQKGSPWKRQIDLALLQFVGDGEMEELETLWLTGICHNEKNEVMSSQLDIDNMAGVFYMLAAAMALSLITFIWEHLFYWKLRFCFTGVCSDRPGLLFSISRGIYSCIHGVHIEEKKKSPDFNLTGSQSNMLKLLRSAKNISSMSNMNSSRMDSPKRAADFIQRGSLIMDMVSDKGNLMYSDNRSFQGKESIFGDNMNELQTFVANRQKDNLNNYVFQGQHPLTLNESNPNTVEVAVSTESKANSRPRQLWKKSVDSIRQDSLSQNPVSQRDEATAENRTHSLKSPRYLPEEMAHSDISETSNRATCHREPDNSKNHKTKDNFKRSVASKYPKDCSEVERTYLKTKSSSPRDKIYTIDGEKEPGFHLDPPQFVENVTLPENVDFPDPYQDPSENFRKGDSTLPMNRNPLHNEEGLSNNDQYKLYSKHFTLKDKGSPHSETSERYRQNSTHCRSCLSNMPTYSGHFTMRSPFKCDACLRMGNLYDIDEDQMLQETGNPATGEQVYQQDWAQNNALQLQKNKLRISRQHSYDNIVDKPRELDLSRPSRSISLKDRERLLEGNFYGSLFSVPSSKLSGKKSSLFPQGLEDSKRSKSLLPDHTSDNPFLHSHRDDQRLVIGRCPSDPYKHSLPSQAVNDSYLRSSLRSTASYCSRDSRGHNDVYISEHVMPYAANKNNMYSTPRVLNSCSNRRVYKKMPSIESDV
Experimental: as §1, §2, §3, §4

[5] = system: Sprague Dawley rats; assay: Bennett model of mechanical analgesia (sciatic nerve chronic constriction, paw withdrawal threshold); type: in vivo, rat; details: 10 mg/kg PO;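 also: log paw withdrawal threshold scaled from vehicle group mean (0%) to naive 15 g value (100%)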
Experimental: The Bennett model of mechanical analgesia is used to assess the analgesic effects of compounds as measured by paw withdrawal threshold. Bennett GJ, Xie YK, “A peripheral mononeuropathy in rat that produces disorders of pain sensation like those seen in man,” Pain 33:87-107, 1988. […] Vehicle animals receive the surgery and then receive vehicle rather than test compound. Animals were tested 1 hr, 24 h and 1 wk post-test compound or vehicle administration.
Male 2-3 month old Sprague Dawley rats were used. Harlan was the supplier for all studies. Rats were housed in Lucite cages with aspen wood chip bedding, maintained on a 12:12 light:dark cycle (lights on at 5 AM), and given ad libitum access to Purina lab chow (USA) and tap water throughout the study.
Rats were anesthetized using inhaled isoflurane (2.5%). Sciatic nerve chronic constriction nerve injury surgery was performed as previously described (Bennett and Xie, 1988). An incision (˜1.5 cm in length) was made with a scalpel blade dorsally through skin on the right hind limb, parallel and posterior to femur. Using a small pointed hemostat, the biceps femoris and gluteus superficialis muscles were separated. Using curved blunt forceps, the common sciatic nerve was isolated and exposed. For the mechanical analgesia studies, the whole sciatic nerve was ligated. Using hemostats/forceps and chromic gut (5-0), the nerve was loosely ligated with a square knot; 3 ligatures, 1 mm apart were placed on the nerve. […] Testing occurred approximately 2 weeks post-surgery.
During testing, rats were acclimated to the surface of a suspended wire mesh grid (1 cm×1 cm, with the wire being 0.3 cm in diameter) for 15-20 min. Starting from the smallest, each Von Frey filament was pressed perpendicularly to the plantar surface of the affected (ipsilateral) hind paw until slightly bent and then held for 6 second. If an obvious hind paw withdrawal or a flinching behavior immediately after the withdrawal of the filament was not observed, the next larger filament was used in the same manner. In case of a response, a lower filament was used. This was repeated until six responses were collected.
For all studies, animals were baselined prior to study start to test for allodynia (defined as a paw withdrawal threshold under 5). A subset of animals was tested with gabapentin (150 mg/kg, PO) to ensure at least 50% analgesia. Once it was confirmed animals were ready for study initiation, animals were balanced across groups. All study investigators were blind to treatment conditions. Animals were dosed with 0.1, 1 or 10 mg/kg of test compound via oral gavage (PO), control sets of animals were dosed with gabapentin (150 mg/kg, PO) or vehicle (0.5% Na-CMC in 0.9% sterile saline, PO). Testing occurred 1 h post-dosing with animals retested 24 hrs and 1 week post-dosing. The percent analgesia calculations for each animal were made using the following equation: % analgesia=[(log(x)−y)/((log (z)−y)]*100, where x=the paw withdrawal threshold for the drug-treated animal in grams, y=the average of the log(x) values for the vehicle treated group, and z=the paw withdrawal threshold for naïve animals in grams (historical value of 15 used).
The results are shown in the table below where the percentage of analgesia is measured at 1 hour, 24 hours, and 1 week after compound administration. Since each study had its own gabapentin control group, an example gabapentin control value is shown.

[6] = IV pharmacokinetics; type: in vivo, Sprague Dawley rats; details: rat, normal saline (* in 5% NMP, 5% Solutol HS, 90% normal saline); for AUC(0-t) / half-life / C0 / Vd: Sprague-Dawley, in vivo, iv; for C0: read-out: C0; for Vd: read-out: Vss; for CI: intravenous 2 mg/kg
Description: The table below summarizes the results of the IV pharmacokinetics.

[7] = system: Sprague Dawley rats; assay: Porsolt forced swim test; type: in vivo, rat; details: 0.1 mg/kg
Experimental: A non-clinical in vivo pharmacology study (Porsolt assay) was performed to measure antidepressant-like effects. A negative control (0.5% sodium carboxymethyl cellulose in 0.9% sterile saline vehicle) and a positive control (fluoxetine) are shown for comparison against test compound. The study allowed for the evaluation of the effects of each compound on the Porsolt forced swim test as assessed by the rats' response (reduced floating time) during a 5-minute swimming test.
Male 2-3 month old Sprague Dawley rats were used (Harlan, Indianapolis, Ind.). Rats were housed in Lucite cages with aspen wood chip bedding, maintained on a 12:12 light:dark cycle (lights on at 5 AM), and given ad libitum access to Purina lab chow (USA) and tap water throughout the study.
The Porsolt forced swim test adapted for use in rats was performed as described by Burgdorf et al., (The long-lasting antidepressant effects of rapastinel (GLYX-13) are associated with a metaplasticity process in the medial prefrontal cortex and hippocampus. Neuroscience 308:202-211, 2015). Animals were placed in a 46 cm tall×20 cm in diameter clear glass tube filled to 30 cm with tap water (23±1° C.) for 15 min on the first day (habituation) and 5 min on the subsequent test day. Positive control fluoxetine was dosed 3 times (24 h, 5 h and 1 h) prior to testing. Animals were tested 1 h or 24 h post-dosing with the test compounds or vehicle. Animals received a 15 min habituation session 1 day before the 5 min test. A subset of compounds tested at 1 h post-dosing were retested at 1 wk post-dosing in the same sets of animals. Water was changed after every other animal. Animals were videotaped, and floating time as defined as the minimal amount of effort required to keep the animals head above water was scored offline by a blinded experimenter with high inter-rater reliability (Pearson's r>0.9).
Each compound tested at dose level shown. Significance vs. vehicle group for each experiment is marked. […] A compound marked “No” was not statistically significant from vehicle. Data was averaged for test compound and vehicle groups (N approximately 8 per group) and the percent reduction in floating for group treated with test compound relative to group treated with vehicle is shown.

[8] = Sprague-Dawley, plasma, po, 10 mg/kg, read-out: Tmax
[9] = Sprague-Dawley, plasma, po, 10 mg/kg, plasma, read-out: Cmax
[10] = 0.25 h, read-out: A: % maximal [3H]MK-801 binding relative to 1 mM glycine
[11] = Sprague-Dawley, plasma, po, 10 mg/kg

With `C[C@@H](O)[C@@H](C(N)=O)N1CC2(CCC(F)(F)CC2)C1=O` [Compound AO, (2S,3R)-2-(7,7-difluoro-1-oxo-2-azaspiro[3.5]nonan-2-yl)-3-hydroxybutanamide] the “Max Effect (mean number of 50 kHz USVs per 15 seconds)” value [1] was “* (*: 6-10.9)”, the Tmax [2, 8] was 1 h and the Cmax [2, 9] was 7310 ng/mL. The “CSF Cmax” value [2] was 1676.3 ng/mL, the EC50 [3] was under 1 nM and the Emax [3, 10] was under 100%. For the same compound, the Emax [4, 10] was 0%, the “% analgesia” value ([5]; 1 wk) was 18.2% and the “% analgesia” value ([5]; 1 h) was 23.7%. The “% analgesia” value ([5]; 24 h) was 7.5%.
In the case of `C[C@@H](O)[C@H](NC1CCC2(CC1)CNC2=O)C(N)=O` (single isomer, unassigned) [AQ], the “Max Effect (mean number of 50 kHz USVs per 15 seconds)” value [1] is reported as “** (**: 11-16.9)”, the AUC(0-t) ([6]; 2 mg/kg) is reported as 2290 ng·h/mL and the half-life ([6]; 2 mg/kg) is reported as 3.84 h. The C0 ([6]; 2 mg/kg) was 3990 ng/mL, the Vd ([6]; 2 mg/kg) was 1.22 L/kg and the CI ([6]; 2 mg/kg) was 14.64 mL/min/kg. For the same compound, the “% F” value [2] was 16%, the “CSF Cmax” value [2] was 65.84 ng/mL and the “Brain Cmax” value [2] was 29.91 ng/mL. The Tmax [2] was 1 h, the AUClast ([2]; plasma) was 1805.63 ng·h/mL and the Cmax ([2]; plasma) was 499.27 ng/mL. For the same compound, the “A: % maximal [3H]MK-801 binding relative to 1 mM glycine” value [3] was “+ (<100%=+)”, the EC50 [3] was under 1 nM and the “A: % maximal [3H]MK-801 binding relative to 1 mM glycine” value [4] was “+ (<100%=+)”. It also gave an EC50 [4] of at least 1 nM.
For `NC(=O)C(CO)N1CC2(CCCCC2)C1=O` (single isomer, unassigned) [AT, 3-hydroxy-2-(l-oxo-2-azaspiro[3.5]nonan-2-yl)propanamide], the AUC(0-t) ([6]; 2 mg/kg) was 2090 ng·h/mL, the half-life ([6]; 2 mg/kg) was 2.38 h and the C0 ([6]; 2 mg/kg) was 2760 ng/mL. The Vd ([6]; 2 mg/kg) was 1.14 L/kg, the CI [6] was 15.94 mL/min/kg and the “% reduction in float time” value ([7]; 1 wk post-dose) was 55.6%. For the same compound, the Significance vs. vehicle ([7]; 1 wk post-dose) was “Yes (statistically significant (p<=0.05) from vehicle at dose level shown)”, the “% reduction in float time” value ([7]; 1 h post-dose) was 63.4% and the Significance vs. vehicle ([7]; 1 h post-dose) was “Yes (statistically significant (p<=0.05) from vehicle at dose level shown)”. It also gave an AUC(0-t) [2, 11] of 8340 ng·h/mL, a bioavailability [2, 11] of 80% and a Tmax [2, 8] of 0.25 h. The Cmax [2, 9] was 6520 ng/mL, the “CSF Cmax” value [2] was 1758 ng/mL and the “Brain Cmax” value [2] was 120 ng/mL. The “A: % maximal [3H]MK-801 binding relative to 1 mM glycine” value [3] was “+ (<100%=+)”, the EC50 [3] was under 1 nM and the “A: % maximal [3H]MK-801 binding relative to 1 mM glycine” value [4] was “+ (<100%=+)”. The EC50 [4] was under 1 nM.

From patent publication US10961189B2, “Spiro-lactam NMDA receptor modulators and uses thereof” (Aptinyx Inc., priority 2016, dated 2021)
